Source: ChEMBL document CHEMBL1122049, “Synthesis and in vitro antimicrobial activity of 5-substituted 2H-1,3,5-thiadiazine-2,4(3H)-diones” (1982)
≈ marks a conversion by molar mass, not a printed value.

Tests used:
Candida albicans = assay: Minimum inhibitory concentration against Candida albicans in Sabouraud dextrose broth by using […]; format: functional
Trichophyton benhamiae = assay: Minimum inhibitory concentration against Trichophyton mentagrophytes in Sabouraud dextrose broth by using […]; format: functional, Arthroderma benhamiae

O=c1nc(-c2cccs2)sc(=O)[nH]1
MIC (Candida albicans): 62 µg/mL (≈ 292 µM) | MIC (Trichophyton benhamiae): 2 µg/mL (≈ 9.42 µM)

O=c1nc(-c2ccc3c(c2)OCO3)sc(=O)[nH]1
MIC (Candida albicans): > 250 µg/mL | MIC (Trichophyton benhamiae): 125 µg/mL (≈ 500 µM)

O=c1nc(Cc2cccnc2)sc(=O)[nH]1
MIC (Candida albicans): 62 µg/mL (≈ 280 µM) | MIC (Trichophyton benhamiae): 8 µg/mL (≈ 36.2 µM)

Oc1c(I)cc(Cl)c2cccnc12 [CLIOQUINOL]
MIC (Candida albicans): 1 µg/mL (≈ 3.27 µM) | MIC (Trichophyton benhamiae): 4 µg/mL (≈ 13.1 µM)

O=c1nc(-c2ccco2)sc(=O)[nH]1
MIC (Candida albicans): 15 µg/mL (≈ 76.5 µM) | MIC (Trichophyton benhamiae): < 2 µg/mL

O=c1nc(-c2ccccc2)sc(=O)[nH]1
MIC (Candida albicans): 8 µg/mL (≈ 38.8 µM) | MIC (Trichophyton benhamiae): < 2 µg/mL

O=c1nc(-c2ccc(Cl)cc2)sc(=O)[nH]1
MIC (Candida albicans): 15 µg/mL (≈ 62.3 µM) | MIC (Trichophyton benhamiae): 4 µg/mL (≈ 16.6 µM)

O=c1nc(Cc2ccc3c(c2)OCO3)sc(=O)[nH]1
MIC (Candida albicans): 125 µg/mL (≈ 473 µM) | MIC (Trichophyton benhamiae): 4 µg/mL (≈ 15.1 µM)

O=c1nc(Cc2ccccc2)sc(=O)[nH]1
MIC (Candida albicans): 125 µg/mL (≈ 568 µM) | MIC (Trichophyton benhamiae): < 2 µg/mL

COc1ccc(-c2nc(=O)[nH]c(=O)s2)cc1
MIC (Candida albicans): 125 µg/mL (≈ 529 µM) | MIC (Trichophyton benhamiae): 8 µg/mL (≈ 33.9 µM)

CC(=O)c1ccc(-c2nc(=O)[nH]c(=O)s2)cc1
MIC (Candida albicans): 31 µg/mL (≈ 125 µM) | MIC (Trichophyton benhamiae): < 2 µg/mL

CN(C)c1ccc(-c2nc(=O)[nH]c(=O)s2)cc1
MIC (Candida albicans): > 125 µg/mL | MIC (Trichophyton benhamiae): 62 µg/mL (≈ 249 µM)

CC(C)c1nc(=O)[nH]c(=O)s1
MIC (Candida albicans): 81 µg/mL (≈ 470 µM) | MIC (Trichophyton benhamiae): 15 µg/mL (≈ 87.1 µM)

Cc1ccc(-c2nc(=O)[nH]c(=O)s2)cc1
MIC (Candida albicans): > 250 µg/mL | MIC (Trichophyton benhamiae): < 2 µg/mL
